Experimental findings from PMC10673369, “Preliminary SAR of Novel Pleuromutilin–Polyamine Conjugates” (Microorganisms, 2023) are described below.

The subject of one assay is E. coli ATCC 25922. Nature of the assay: MIC, broth dilution, E. coli. The format is cell-based, Escherichia coli. The following applies: Escherichia coli, ATCC25922, mean (n = 3). As for the experimental part: (§1) The susceptibility of bacterial strains S. aureus (ATCC 25923), E. coli (ATCC 25922), and P. aeruginosa (ATCC 27853 or PAO1) to antibiotics and compounds was determined using reported protocols. Additional antimicrobial evaluation against MRSA (ATCC 43300), Klebsiella pneumoniae (ATCC 700603), A. baumannii (ATCC 19606), Candida albicans (ATCC 90028), and Cryptococcus neoformans (ATCC 208821) was undertaken at the Community for Open Antimicrobial Drug Discovery at The University of Queensland (Australia) according to their standard protocols as reported previously. […]
(§2) 2.3. Antimicrobial Assays
(§3) The susceptibility of bacterial strains S. aureus (ATCC 25923), E. coli (ATCC 25922), and P. aeruginosa (ATCC 27853 or PAO1) to antibiotics and compounds was determined in microplates using the standard broth dilution method in accordance with the recommendations of the Comité de l’AntibioGramme de la Société Française de Microbiologie (CA-SFM). Briefly, the minimal inhibitory concentrations (MICs) were determined with an inoculum of 10^5 CFU in 200 µL of Mueller–Hinton broth (MHB) containing two-fold serial dilutions of each drug. The MIC was defined as the lowest […]
(§4) determine all MICs, the measurements were independently repeated in triplicate. Additional antimicrobial evaluation against MRSA (ATCC 43300), Klebsiella pneumoniae (ATCC 700603), A. baumannii (ATCC 19606), Candida albicans (ATCC 90028), and Cryptococcus neoformans (ATCC 208821) was undertaken at the Community for Open Antimicrobial Drug Discovery at The University of Queensland (Australia) according to their standard protocols as reported previously. […]

The subject of the next assay is C. albicans ATCC 90028. Nature of the assay: MIC, CO-ADD antifungal assay, C. albicans. The format is cell-based, Candida albicans. The following applies: Candida albicans, ATCC90028, mean (n = 2). The method, then:
as §1, §2
(§5) The susceptibility of bacterial strains S. aureus (ATCC 25923), E. coli (ATCC 25922), and P. […]
(§6) baumannii (ATCC 19606), Candida albicans (ATCC 90028), and Cryptococcus neoformans (ATCC 208821) was undertaken at the Community for Open Antimicrobial Drug Discovery at The University of Queensland (Australia) according to their standard protocols as reported previously. […]
(§7) For the antifungal assay, fungi strains were cultured for 3 days on YPD agar at 30 °C. A yeast suspension of 1 × 106 to 5 × 10^6 CFU/mL was prepared from five colonies. These stock suspensions were diluted with yeast nitrogen base (YNB) (Becton Dickinson, 233520) broth to a final concentration of 2.5 × 10^3 CFU/mL. The compounds were serially diluted 2-fold across the wells of 96-well plates (Corning 3641, non-binding surface), with compound concentrations ranging from 0.015 to 64 µg/mL and final volumes of 50 µL, plated in duplicate. Then, 50 µL of the fungi suspension that was previously prepared in YNB broth to the final concentration of 2.5 × 10^3 CFU/mL was added to each well of the compound-containing plates, giving a final compound concentration range of 0.008 to 32 µg/mL. Plates were covered and incubated at 35 °C for 36 h without shaking. C. albicans MICs were determined by measuring the absorbance at OD530. For C. neoformans, resazurin was added at 0.006% final concentration to each well and incubated for a further 3 h before MICs were determined by measuring […]
(§8) Colistin and vancomycin were used as positive bacterial inhibitor standards for Gram-negative and Gram-positive bacteria, respectively. Fluconazole was used as a positive fungal inhibitor standard for C. albicans and C. neoformans. The antibiotics were provided in […], with 3 above and 3 below its MIC value, and plated into the first 8 wells of column 23 of the 384-well NBS plates. The quality control (QC) of the assays was determined by the antimicrobial controls and the Z'-factor (using positive and negative controls). Each plate was deemed to fulfil the quality criteria (pass QC) if the Z'- […]
(§9) inhibition at their highest concentration, and no growth inhibition at their lowest concentration.
(§10) 2.4. Determination of the MICs of Antibiotics in the Presence of Synergizing Compounds

The subject of assay [1] is K. pneumoniae ATCC 700603. Nature of the assay: MIC, CO-ADD broth microdilution, K. pneumoniae. The following applies: Klebsiella pneumoniae, ATCC700603, mean (n = 2). Type of assay: cell-based, Klebsiella pneumoniae. As for the experimental part:
as §1, §2, §5
baumannii (ATCC 19606), Candida albicans (ATCC 90028), and Cryptococcus neoformans (ATCC 208821) was undertaken at the Community for Open Antimicrobial Drug Discovery at The University of Queensland (Australia) according to their standard protocols as reported previously. For antimicrobial assays, the tested strains were cultured in either Luria broth (LB) (In Vitro Technologies, USB75852), nutrient broth (NB) (Becton Dickson, 234000), or MHB at 37 °C overnight. A sample of culture was then diluted 40-fold in fresh MHB and incubated at 37 °C for 1.5−2 h. The compounds were serially diluted 2-fold across the wells of 96-well plates (Corning 3641, non-binding surface), with compound concentrations ranging from 0.015 to 64 µg/ mL, and plated in duplicate. The resultant mid-log phase cultures were diluted to the final concentration of 1 × 10^6 CFU/mL; then, 50 µL was added to each well of the compound-containing plates, giving a final compound concentration range of 0.008 to 32 µg/mL and a cell density of 5 × 10^5 CFU/mL. All plates were then covered and incubated at 37 °C for 18 h. Resazurin was added at 0.001% final concentration to each well and incubated for 2 h before MICs […]
(§11) For C. neoformans, resazurin was added at 0.006% final concentration to each well and incubated for a further 3 h before MICs were determined by measuring […]
as §8, §9, §10
On the technique in general: In broth dilution the organism is exposed to a series of concentrations in liquid medium.

Assay [2] has as its system C. neoformans ATCC 208821. Nature of the assay: MIC, CO-ADD antifungal assay, C. neoformans. Type of assay: cell-based, Cryptococcus neoformans. Particulars: Cryptococcus neoformans, ATCC208821, mean (n = 2). The method, then: as §1, §2, §5, §6, §7, §8, §9, §10
In the next assay the test system is P. aeruginosa ATCC 27853. Nature of the assay: Antibiotic enhancement of doxycycline. The format is cell-based. The following applies: for Dox/P.a.: fold change, ratio between intrinsic MIC of test compound and combination MIC: doxycycline at 4.5 µM; for Dox/P.a.: concentration required to restore doxycycline activity: doxycycline at 4.5 µM (2 µg/mL). As for the experimental part:
Antibiotic restoring enhancer concentrations were determined using reported protocols (see Supplementary File).
Briefly, restoring enhancer concentrations were determined with an inoculum of 5x10^5 CFU in 200
µL of MHB containing two-fold serial dilutions of each derivative in the presence of doxycycline at 4.5
The lowest concentration of the polyamine
These measurements were independently repeated in triplicate. […]

A further assay has as its system P. aeruginosa PAO1. Nature of the assay: MIC, broth dilution, P. aeruginosa PAO1. Type of assay: cell-based. The following applies: Pseudomonas aeruginosa, mean (n = 3). The method, then: as §1, §2, §3, §4, §11, §8, §9, §10

For orientation: MIC means the least concentration at which growth counts as inhibited. In the case of `C=C[C@]1(C)C[C@@H](OC(=O)CNCCCNCCCCNCCCNCC(=O)O[C@@H]2C[C@@](C)(C=C)[C@@H](O)[C@H](C)[C@]34CCC(=O)[C@H]3[C@@]2(C)[C@H](C)CC4)[C@]2(C)[C@H](C)CC[C@]3(CCC(=O)[C@H]32)[C@@H](C)[C@@H]1O.O=C(O)C(F)(F)F.O=C(O)C(F)(F)F.O=C(O)C(F)(F)F.O=C(O)C(F)(F)F` [Compound 9a, N^1,N^1′-(Butane-1,4-diyl)bis(N^3-(2-(((3aR,4R,5R,7S,8S,9R,9aS,12R)-8-hydroxy-4,7,9,12-tetramethyl-3-oxo-7-vinyldecahydro-4,9a-propanocyclopenta [8]annulen-5-yl)oxy)-2-oxoethyl)propane-1,3-diaminium) 2,2,2-trifluoroacetate], the minimal inhibitory concentration (MIC) against E. coli ATCC 25922 was 18.1 µM; in the assay on C. albicans ATCC 90028 it was more than 23.2 µM; in assay [1], more than 23.2 µM; in assay [2], 0.72 µM; in the assay on P. aeruginosa PAO1, 72.5 µM. Moreover, in the assay on P. aeruginosa ATCC 27853, the “Dox/P.a.: fold change, ratio between intrinsic MIC of test compound and combination MIC” value stood at 4. In addition, in the assay on P. aeruginosa ATCC 27853, the “Dox/P.a.: concentration required to restore doxycycline activity” value (from here on “Dox/P.a.: concentration required”) worked out at 18.1 µM.
Consider `C=C[C@]1(C)C[C@@H](OC(=O)CNCCCNCCCCCCNCCCNCC(=O)O[C@@H]2C[C@@](C)(C=C)[C@@H](O)[C@H](C)[C@]34CCC(=O)[C@H]3[C@@]2(C)[C@H](C)CC4)[C@]2(C)[C@H](C)CC[C@]3(CCC(=O)[C@H]32)[C@@H](C)[C@@H]1O.O=C(O)C(F)(F)F.O=C(O)C(F)(F)F.O=C(O)C(F)(F)F.O=C(O)C(F)(F)F` [Compound 9b, N^1,N^1′-(Hexane-1,6-diyl)bis(N^3-(2-(((3aR,4R,5R,7S,8S,9R,9aS,12R)-8-hydroxy-4,7,9,12-tetramethyl-3-oxo-7-vinyldecahydro-4,9a-propanocyclopenta [8]annulen-5-yl)oxy)-2-oxoethyl)propane-1,3-diaminium) 2,2,2-trifluoroacetate], for which the MIC in the assay with E. coli ATCC 25922 was 8.88 µM; in the assay on C. albicans ATCC 90028, more than 22.7 µM; in assay [1] it was more than 22.7 µM; in assay [2], not above 0.18 µM; in the assay on P. aeruginosa PAO1, 142 µM. In the assay on P. aeruginosa ATCC 27853, the “Dox/P.a.: fold change, ratio between intrinsic MIC of test compound and combination MIC” value stood at 4. For the same molecule, in the assay on P. aeruginosa ATCC 27853, the “Dox/P.a.: concentration required” value is 35.5 µM.
In the case of `C=C[C@]1(C)C[C@@H](OC(=O)CNCCCNCCCCCCCCNCCCNCC(=O)O[C@@H]2C[C@@](C)(C=C)[C@@H](O)[C@H](C)[C@]34CCC(=O)[C@H]3[C@@]2(C)[C@H](C)CC4)[C@]2(C)[C@H](C)CC[C@]3(CCC(=O)[C@H]32)[C@@H](C)[C@@H]1O.O=C(O)C(F)(F)F.O=C(O)C(F)(F)F.O=C(O)C(F)(F)F.O=C(O)C(F)(F)F` [Compound 9d, N^1,N^1′-(Octane-1,8-diyl)bis(N^3-(2-(((3aR,4R,5R,7S,8S,9R,9aS,12R)-8-hydroxy-4,7,9,12-tetramethyl-3-oxo-7-vinyldecahydro-4,9a-propanocyclopenta [8]annulen-5-yl)oxy)-2-oxoethyl)propane-1,3-diaminium) 2,2,2-trifluoroacetate], the MIC in the assay with E. coli ATCC 25922 is 70 µM; in the assay with C. albicans ATCC 90028 it was more than 22.3 µM; in assay [1], more than 22.3 µM; in assay [2], not above 0.17 µM; in the assay on P. aeruginosa PAO1 it was more than 139 µM. Also, the “Dox/P.a.: fold change, ratio between intrinsic MIC of test compound and combination MIC” value with P. aeruginosa ATCC 27853 is listed as 1. Moreover, the “Dox/P.a.: concentration required” value with P. aeruginosa ATCC 27853 turned out to be 139 µM.
`C=C[C@]1(C)C[C@@H](OC(=O)CNCCCNCCCCCCCCCCCCNCCCNCC(=O)O[C@@H]2C[C@@](C)(C=C)[C@@H](O)[C@H](C)[C@]34CCC(=O)[C@H]3[C@@]2(C)[C@H](C)CC4)[C@]2(C)[C@H](C)CC[C@]3(CCC(=O)[C@H]32)[C@@H](C)[C@@H]1O.O=C(O)C(F)(F)F.O=C(O)C(F)(F)F.O=C(O)C(F)(F)F.O=C(O)C(F)(F)F` [Compound 9f, N^1,N^1′-(Dodecane-1,12-diyl)bis(N^3-(2-(((3aR,4R,5R,7S,8S,9R,9aS,12R)-8-hydroxy-4,7,9,12-tetramethyl-3-oxo-7-vinyldecahydro-4,9a-propanocyclopenta [8]annulen-5-yl)oxy)-2-oxoethyl)propane-1,3-diaminium) 2,2,2-trifluoroacetate]: the MIC in the assay with E. coli ATCC 25922 is 4.19 µM; in the assay on C. albicans ATCC 90028, 21.5 µM; in assay [1] it was 21.5 µM; in assay [2] it was not above 0.17 µM; in the assay with P. aeruginosa PAO1, 33.5 µM. In the assay with P. aeruginosa ATCC 27853, the “Dox/P.a.: fold change, ratio between intrinsic MIC of test compound and combination MIC” value worked out at 4. The “Dox/P.a.: concentration required” value in the assay with P. aeruginosa ATCC 27853 stood at 8.38 µM.
On to `C=C[C@]1(C)C[C@@H](OC(=O)CNCCCNCCCCCCCNCCCNCC(=O)O[C@@H]2C[C@@](C)(C=C)[C@@H](O)[C@H](C)[C@]34CCC(=O)[C@H]3[C@@]2(C)[C@H](C)CC4)[C@]2(C)[C@H](C)CC[C@]3(CCC(=O)[C@H]32)[C@@H](C)[C@@H]1O.O=C(O)C(F)(F)F.O=C(O)C(F)(F)F.O=C(O)C(F)(F)F.O=C(O)C(F)(F)F` [Compound 9c, N^1,N^1′-(Heptane-1,7-diyl)bis(N^3-(2-(((3aR,4R,5R,7S,8S,9R,9aS,12R)-8-hydroxy-4,7,9,12-tetramethyl-3-oxo-7-vinyldecahydro-4,9a-propanocyclopenta [8]annulen-5-yl)oxy)-2-oxoethyl)propane-1,3-diaminium) 2,2,2-trifluoroacetate], for which the MIC is 35.2 µM against E. coli ATCC 25922; more than 22.5 µM with C. albicans ATCC 90028; more than 22.5 µM in assay [1]; not above 0.18 µM in assay [2]; more than 141 µM in the assay with P. aeruginosa PAO1. Further, in the assay on P. aeruginosa ATCC 27853, the “Dox/P.a.: fold change, ratio between intrinsic MIC of test compound and combination MIC” value amounted to 1. In addition, the “Dox/P.a.: concentration required” value in the assay on P. aeruginosa ATCC 27853 worked out at 141 µM.
